Laboratory results from patent US12297197B2, “Pyrazolopyridine compound as RET inhibitor and application thereof” (GUANGZHOU BAIYUNSHAN PHARMACEUTICAL HOLDINGS CO., LTD. …, priority 2019, dated 2025).

Legend:
RET kinase = RET kinase (Homo sapiens, UniProt P07949); test: In-vitro enzyme activity test, RET kinase; type: biochemical; details: ATP 20 μM; 10 concentrations 3 μM to 0.152 nM
Procedure: (§1) The enzyme activity was detected by a Z′-LYTE™ kinase test, and inhibitory effects of the compounds onRET and RET (V804M) kinases were evaluated with an ICs value of each compound as an index.
(§2) The compounds used for RET and RET (V804M) kinase tests were diluted 3-fold, in 10 concentration gradients ranging from 3 μM to 0.152 nM; and the content of DMSO in detection reaction was 1%.
(§3) Basic reaction buffer, 20 mM 4-(2-hydroxyethyl)piperazine-1-ethanesulfonic acid (Hepes) buffer (pH 7.5), 10 mM MgCl2. 1 mM 1,2-bis[2-[bis(carboxymethyl)amino]ethoxy]ethane (EGTA), 0.02% polyoxyethylene lauryl ether (Brij35), 0.02 mg/mL bovine serum albumin, 0.1 mM of Na3VO4, 2 mM dithiothreitol (DTT) and 1% DMSO.
(§4) The compounds to be tested were dissolved in a 100% DMSO system to be diluted to 10 mM for further use. The solution was diluted by using Integra Viaflo Assist.
(§5) Test conditions: concentrations of RET kinase, peptide substrate CHKtide and adenosine triphosphate (ATP) were […], 1000 μM and 20 μM, respectively, and concentrations of RET (V804M) kinase, substrate peptide and ATP were […], 1000 μM and 30 μM, respectively.
(§6) Reaction process: compound solutions of different concentrations were added to a kinase/peptide solution prepared according to the test conditions, the obtained solution was incubated at room temperature for 20 minutes, and then 33P-ATP of corresponding concentrations were added, and the obtained solution was incubated at room temperature for 120 minutes. The radioactivity was detected by a filter-binding method.
(§7) The reaction was terminated by adding phosphoric acid (concentration, 0.5%) into a kinase reaction solution, and plate reading was carried out with an Envision instrument.
(§8) Data were converted into phosphorylation rate and inhibition rate, and the parametric curve was fitted by using GraphPad Software to obtain IC50 data of the compounds.

RET (V804M) kinase = RET (V804M) kinase (Homo sapiens, UniProt P07949, V804M); test: In-vitro enzyme activity test, RET (V804M) kinase; type: biochemical; details: ATP 30 μM; 10 concentrations 3 μM to 0.152 nM
Procedure: as §1, §2, §3, §4, §5, §6, §7, §8

Sequence of RET kinase (P07949 29-1114): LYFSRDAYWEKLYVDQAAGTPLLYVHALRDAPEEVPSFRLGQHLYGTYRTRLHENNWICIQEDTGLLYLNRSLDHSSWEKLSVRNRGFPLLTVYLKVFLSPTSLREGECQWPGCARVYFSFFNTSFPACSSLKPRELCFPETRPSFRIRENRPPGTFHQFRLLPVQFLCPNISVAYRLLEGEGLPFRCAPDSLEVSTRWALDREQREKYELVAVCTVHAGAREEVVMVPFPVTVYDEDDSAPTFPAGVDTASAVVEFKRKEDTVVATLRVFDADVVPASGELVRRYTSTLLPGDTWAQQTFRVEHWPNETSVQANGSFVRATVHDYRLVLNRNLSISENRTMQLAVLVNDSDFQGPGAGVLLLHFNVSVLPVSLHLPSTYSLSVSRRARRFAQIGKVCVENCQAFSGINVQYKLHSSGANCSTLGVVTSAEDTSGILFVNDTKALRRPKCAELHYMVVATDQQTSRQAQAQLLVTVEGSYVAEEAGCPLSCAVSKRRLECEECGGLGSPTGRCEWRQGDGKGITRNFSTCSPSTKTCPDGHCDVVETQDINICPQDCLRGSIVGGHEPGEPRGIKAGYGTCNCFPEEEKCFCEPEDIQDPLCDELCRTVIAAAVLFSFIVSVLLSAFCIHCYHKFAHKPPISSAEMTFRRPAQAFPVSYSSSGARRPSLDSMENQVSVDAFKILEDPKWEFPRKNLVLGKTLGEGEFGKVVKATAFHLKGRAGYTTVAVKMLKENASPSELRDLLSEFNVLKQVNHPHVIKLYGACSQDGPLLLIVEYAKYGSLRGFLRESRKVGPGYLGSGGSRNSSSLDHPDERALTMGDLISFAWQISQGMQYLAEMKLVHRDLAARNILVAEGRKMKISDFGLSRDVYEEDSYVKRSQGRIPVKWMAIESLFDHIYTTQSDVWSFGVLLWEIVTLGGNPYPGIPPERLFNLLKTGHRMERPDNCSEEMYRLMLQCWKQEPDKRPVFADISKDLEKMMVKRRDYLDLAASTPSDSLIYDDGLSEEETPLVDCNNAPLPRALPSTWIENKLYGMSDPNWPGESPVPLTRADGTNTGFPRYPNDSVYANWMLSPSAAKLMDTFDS
Sequence of RET (V804M) kinase (P07949 29-1114 V804M): as the sequence (P07949 29-1114) above, with V776M counted along it

Structure (SMILES)	IC50 (RET kinase) [nM]	IC50 (RET (V804M) kinase) [nM]
N#Cc1cnn2cc(C3=CCOCC3)cc(-c3ccc(N4CC5CC(C4)N5Cc4ccc5[nH]cnc5c4)nc3)c12 [Compound 37]	2.3	15.6
CCN1CC=C(c2cc(-c3ccc(N4CCN(Cc5c(F)cccc5F)CC4)nc3)c3c(C#N)cnn3c2)CC1 [Trifluoroacetate of compound 27]	4.37	33.6
CO[C@H]1C[C@@H](NC(=O)C2CCN(c3ccc(-c4cc(N5CCCC5)cn5ncc(C#N)c45)cn3)CC2)C1 [Trifluoroacetate of compound 61]	1.77	8.85
CC(C)(O)CNC(=O)C1CCN(c2ccc(-c3cc(N4CCCC4)cn4ncc(C#N)c34)cn2)CC1 [Trifluoroacetate of compound 60]	3.87	19.9
N#Cc1cnn2cc(C3=CCOCC3)cc(-c3ccc(N4CC5CC(C4)N5Cc4cnc5[nH]ccc5c4)nc3)c12 [Compound 35]	1.57	5.47
COc1c(F)cc(CN2C3CC2CN(c2ccc(-c4cc(N5CCOCC5)cn5ncc(C#N)c45)cn2)C3)cc1F [Trifluoroacetate of compound 11]	1.3	0.61
COc1ccc(CN2C3CC2CN(c2cnc(-c4cc(N5CC[C@@H](F)C5)cn5ncc(C#N)c45)cn2)C3)cn1 [Trifluoroacetate of compound 67]	1.09	1.6
C[C@@H](C(=O)N1CCN(c2ccc(-c3cc(C4=CCOC4)cn4ncc(C#N)c34)cn2)CC1)c1ccccc1 [Trifluoroacetate of compound 28]	1.58	11.6
COc1ccc(CN2C3CC2CN(c2ccc(-c4cc(C5=CCOCC5)cn5ncc(C#N)c45)cn2)C3)cn1 [Trifluoroacetate of compound 33]	1.47	7.43
COc1ccc(CN2C3CC2CN(c2ccc(-c4cc(C5=CCNC(C)C5)cn5ncc(C#N)c45)cn2)C3)cn1 (stereo not shown) [Compound 41]	3.09	11.3

These reach a lower IC50 (RET kinase). Values come first.

IC50 (RET kinase) [nM]	IC50 (RET (V804M) kinase) [nM]	Structure (SMILES)
0.66	2.6	COc1ccc(CN2C3CC2CN(c2cnc(-c4cc(N5CCC(F)(F)C5)cn5ncc(C#N)c45)cn2)C3)cn1 [Trill uoroacetale of compound 65]
0.69	3.79	COc1ccc(CN2C3CC2CN(c2ccc(-c4cc(N5CCNCC5)cn5ncc(C#N)c45)cn2)C3)cn1 [Trifluoroacetate of compound 10]
0.67	2.27	COc1ccc(CN2C3CC2CN(c2ccc(-c4cc(C5=CCC(O)CC5)cn5ncc(C#N)c45)cn2)C3)cn1 (stereo not shown) [Trifluoroacetate of compound 39]
0.61	0.51	CC(C)Oc1ccc(CN2C3CC2CN(c2ccc(-c4cc(N5CCOCC5)cn5ncc(C#N)c45)cn2)C3)cn1 [Trifluoroacetate of compound 12]
